# From patent publication US9078907B2, “Immunoregulator compounds” (Universita Degli Studi Di Roma “Tor Vergata”, priority 2001, dated 2015)
# Experiments:
# [1] = test system: Mycobacterium smegmatis; test: Colony forming units of M. smegmatis in differentiated THP-1 cells; type: cell-based; conditions: THP-1 macrophage cell line, MOI 50:1, 5 μM, 1, 12 and 24 hours
# Method: Human monocytic THP-1 leukemia line cells were used in this example as a model for macrophage response. In order to obtain macrophage phenotype, 5×10^5/ml THP-1 cells were induced to differentiate by 48 hours incubation in the presence of 20 ng/ml Phorbol Myristate Acetate (PMA). Differentiated THP-1 cells (dTHP-1) were then centrifuged three times and suspended in complete medium [RPMI 1640 (Gibco BRL) supplemented with 10% fetal bovine serum (Gibco BRL), 5 mM L-glutamine (Invitrogen), 1 mM sodium pyruvate (Gibco BRL) and non-essential amino acids (Euroclone)]. dTHP-1 were then infected for 3 hours with M. smegmatis at the multiplicity of infection of bacterium/cell 50:1. Following infection cells were washed three times with RPMI 1640 and incubated in complete medium at 37° C. for further 1, 12 and 24 hours in the presence or absence of sphingosine-1 phosphate used at the concentration of 5 μM.
# In order to assess the role of macrophage PLD activity in sphingosine 1-phosphate induced mycobacterial growth control, following the infection the cells were cultured in the presence of various concentrations of ethanol (0.3%, 0.03%, 0.003%) or 10 nM calphostin C. […] Inhibiting activity of calphostin C is exploited by targeting PLD catalytic domain (Sciorra V. A., Hammond S. M., Morris A. J. Potent direct inhibition of mammalian phospholipase D isoenzymes by calphostin c. Biochemistry 2001; 40: 2640-46). Just after the infection and at the indicated time points, cells were 1) lysed using cold PBS containing 0.1% saponin (Sigma, MA, USA), ii) serially diluted in PBS containing 0.01% Tween-80 (Merck, Darmstadt, Germany) and iii) plated in triplicate in Middlebrook 7H10 medium (Becton Dickinson, MD, USA) supplemented with 10% OADC formulation (0.5 mg/ml oleic acid, 50 mg/ml albumin, 20 mg/ml dextrose, 0.04 mg/ml catalase and 8.5 mg/ml sodium chloride). M. smegmatis colonies were enumerated after incubation for 3 days at 37° C.
# [2] = test system: Cathepsin D; test: Western blot of Cathepsin D in macrophage phagosomal fractions after latex beads internalisation; type: cell-based, human; conditions: 5 μM S1P, 24 hours after latex beads internalisation
# Method: In order to analyse the expression of an intralysosomal protein within beads containing phagolysosomes the macrophage phagosomal fraction was separated. Particularly, cells were incubated with sterile latex beads ([…]) (Sigma), 1: 200 diluted, in culture medium for 1 hour in the presence of 5% CO2 and then treated with 5 μM S1P.
# Separation of the phagosomes was carried out by centrifugation on sucrose gradient. Cells were washed three times with PBS (twice for 10 minutes) and then again incubated for 24 hours at 37°C. Following the internalisation and 24 hour incubation period cells were washed with cold PBS and collected using a little scraper in PBS at 4° C., then centrifuged at 2000 rpm for 10 minutes at 4° C. and finally washed with homogenising buffer (250 mM sucrose, 3 mM imidazole, pH 7.4) again at 4° C. Cellular pellet was suspended in 1 ml homogenising buffer and cells were lysed with an homogenizer. Phagosomes were isolated by centrifugation on sucrose gradient. Cells, suspended in 1 ml of PBS, were added to 1 ml of 40% sucrose solution and such a suspension was stratified on 2 ml of 62% sucrose solution in ultracentrifuge tubes. Then 2 ml of 35%, 25% and 10% sucrose solutions were stratified (all the solutions were prepared in 3 mM imidazole, pH 7.4). The tubes were ultra-centrifuged using SW41 rotor at 100000 g at 4° C. […]
# [3] = test system: MTB-FITC infected macrophages; test: Phagolysosome maturation by flow cytometry of FITC-labelled MTB infected macrophages; type: cell-based, human; conditions: MTB-FITC MOI 1 for 3 hours, 5 μM S1P for 30 minutes; S1P non-treated 63.4%
# Method: In some experiments MTB aliquots, after thawing at room temperature, centrifuged at 10000 rpm for 10 minutes, suspended in PBS and sonicated for 1-2 minutes, were labelled with fluorescein isothiocyanate (FITC) (Sigma). FITC, pre-suspended at 1 μg/ml concentration, was added to the bacterial suspension, which was incubated at 37° C. in the presence of 5% CO2 for about 90 minutes. At the end of the incubation the bacterial suspension was washed three times with centrifugation at 14000 rpm for 15 minutes and suspended in PBS at required concentration.
# By virtue of extreme sensitivity of fluorescein isothiocyanate (FITC) to acid pHs this molecule was used to monitor the phagosome acidity and have therefore information about maturation stage of phagolysosome. To this aim, bacteria were labelled with fluorescein isothiocyanate (FITC) as above described. Infection was carried out using FITC labelled bacteria. Then, cells were washed after 3 hours and stimulated for 30 minutes with 5 μM sphingosine 1-phosphate and following 1.5% paraformaldehyde (PFA) fixated and finally monitored by flow cytofluorometry.
# In order to evaluate the effect of S1P on a specific antimicrobial activity as the maturation of phagolysosome, the infection with FITC-labelled MTB was carried out and the fluorescence values of FITC-MTB were used as indicators of the phagolysosome maturation. […]
structure (smiles),measurement,setting,value
"CCCCCCCCCCCCC/C=C/[C@@H](O)[C@@H](N)COP(=O)(O)O [S1P, D-erythro-sphingosine 1-phosphate]",intracellular replication of Mycobacterium smegmatis (CFU),[1],inhibits
same,amount of intralysosomal protein (Cathepsin D) in the phagosomal fraction versus non-treated macrophages,[2],higher
same,% of fluorescent macrophages (FITC-MTB fluorescence),[3],38.9%
